Data reported in patent US7524836B2, “Nitrooxyderivative steroidal compounds” (Nicox S.A., priority 2001, dated 2009).
Where two headings read alike, the source gives them in different places.

Tests used:
[1] = test system: rats treated or not treated with L-NAME; conditions: rat, in vivo, ip
[2] = Test 4: inhibition of radical production from DPPH; conditions: tested substance 10^-4 M (100 μM) in methanol, 30 minutes, absorbance at 517 nm
Protocol: [drawing 21] • wherein test 4 is the following: it is an analytical determination carried out by adding portions of methanol solutions of the precursor of B or B1 at a 10^−4 M concentration, to a methanol solution of DPPH (2,2-diphenyl-1-picryl hydrazyl-free radical); after having maintained the solution at room temperature away from light for 30 minutes, it is read the absorbance at the wave length of 517 nm of the test solution and of a solution containing only DPPH in the same amount as in the test solution; and then the inhibition induced by the precursor towards radical production by DPPH is calculated as a percentage by means of the following formula: (1−AS/AC)×100 wherein AS and AC are respectively the absorbance values of the solution containing the test compound+DPPH and that of the solution containing only DPPH; the acceptance criterium of the compounds according to this test is the following: test 4 is met by B or B1 precursor compounds if the inhibition percentage as above defined is higher than or equal to 50%;
Test 4 is a […] test which affords to establish whether the orecursors of B or B1 inhibit the production of radicals from DPPH (2,2-diphenyl-1-picryl-hydrazyl) (M. S. Nenseter et Al., Atheroscler. Thromb. 15, 1338-1344, 1995). 100 μM solutions in methanol of the tested substances are prepared, and an aliquot of each of said solutions is added to a DPPH solution in methanol […]. After having stored the solutions at room temperature away from light for 30 minutes, their absorbances are read at the wave length of 517 nm, together with that of the corresponding DPPH solution at the same concentration. The absorbance decrease with respect to that of the solution of DPPH at the same concentration of the test solutions is determined. The effectiveness of the tested compound in inhibiting formation of radicals by DPPH is expressed by the following formula: (1−AS/AC)×100 wherein AS and AC are respectively the absorbance values of the solution containing the test compound together with DPPH and of the solution containing only DPPH; the compounds precursor of B or B1 meet test 4 when the inhibition percentage of radical production from DPPH, expressed as a percentage according to the above equation, is higher than or equal co 50% at the indicated concentration (10^−4 M).
The method is based on a colorimetric test in which DPPH (2,2-diphenyl-1-picryl-hydrazyl) is used as the compound-forming radicals (M. S. Nenseter et Al., Atheroscler. Thromb. 15, 1338-1344, 1995).
Solutions in methanol of the tested substances at a final concentration 100 μM are initially prepared. 0.1 ml of each of these solutions are added to aliquots of 1 ml of a methanol solution […] of DPPH and then the final volume is brought to 1.5 ml. After having stored the solutions at room temperature away from light for 30 minutes, the absorbance at the wave length of […] is read. It is determined the absorbance decrease with respect to the absorbance of a solution containing the same concentration of DPPH.
The efficacy of the test compound to inhibit the production of radicals, otherwise said antiradical activity, is expressed by the following formula: (1−AS/AC)×100 wherein AS and AC are, respectively, the absorbance values of the solution containing the test compound together+DPPH and of the solution containing only DPPH. […]

[3] = Test 5: inhibition of radical production from Fe^II (desoxyribose degradation); conditions: 10^-4 M methanolic solution, 37° C. for one hour, absorbance at 532 nm
Protocol: […]
Test 5 is a […] test wherein 0.1 ml aliquots of 10^−4 M methanolic solutions of the tested products are added to test tubes containing a solution formed by 0.2 ml of 2 mM desoxyribose, 0.4 ml of phosphate buffer pH 7.4 100 mM and 0.1 ml of 1 mM Fe^II(NH4)2(SO4)2 in 2 mM HCl. […] A pink coloration is developed the intensity of which is proportional to the quantity of desoxyribose undergone to radical oxidative degradation. The solutions are cooled at room temperature and their absorbances are read at 532 nm against the blank. The inhibition induced by the precursor of B or B1 or C=-TC-Y—H in comparison with the radical production by Fe^II is determined by means of the following formula: (1−AS/AC)×100 wherein AS and AC are respectively the absorbance values of the solution containing the tested compound+the iron salt and that of the solution containing only the iron salt, the compound meets test 5 when the inhibition percentage of radical production as above defined from the precursor of B or B1 or C=-TC-Y—H is higher than or equal to 50%. […]

[4] = test system: rats treated or not treated with L-NAME; design: species or system rat (Long Evans); conditions: rat, in vivo, ip; for GPT var. %: 100 mg/kg
Protocol: In those groups of rats treated, respectively, with ursodesoxycholic acid and chenodeoxycholic acid and thereof corresponding compounds according to the present invention, GPT is determined.
At the end of the four weeks access to water is prevented and after 24 hours the animals are sacrificed.
1st group receiving L-NAME (group d-comparative) administered at the same time with 100 mg/Kg (0.25 mmoles/Kg) of ursodesoxycholic acid+49.5 mg/Kg (0.25 mmoles/Kg) of ferulic acid in the same above carrier, • c. 2nd group receiving L-NAME (group e) administered with 175 mg/Kg (0.25 mmoles/Kg) of the ursodesoxycholic derivative according to the invention (ref. ex. 1) in the same above carrier.

C[C@]12C=CC(=O)C=C1CC[C@@H]1[C@@H]2[C@@H](O)C[C@@]2(C)[C@H]1CC[C@]2(O)C(=O)CO [prednisolone]
Blood pressure variation % ([1]; 10 mg/kg): 119%

COc1cc(/C=C/C(=O)O)ccc1O [Ferulic acid]
% inhibition radical production from DPPH ([2]; 100 µM): 100%

CC(=O)N[C@@H](CSC(=O)CCCO[N+](=O)[O-])C(=O)OCC(=O)[C@@]1(O)CC[C@H]2[C@@H]3CCC4=CC(=O)C=C[C@]4(C)[C@H]3[C@@H](O)C[C@@]21C [Example 3, (11β)-11,17-dihydroxy-21[N-acetyl-S-(4-nitroxybutyroyl)cysteinyloxy]-pregn-1,4-diene-3,20-dione]
Blood pressure variation % ([1]; 10 mg/kg): 102%

O=C(O)c1cc(O)ccc1O [Gentisic acid]
% inhibition radical production from DPPH ([2]; 100 µM): 80%

CC(=O)N[C@@H](CS)C(=O)O [N-acetylcysteine]
% inhibition radical production from DPPH [2]: 100%

O=C(O)C1CSCN1 (stereo not drawn) [4-thiazolidin carboxylic acid]
% Radical Inhibition from Fe^II [3]: 100%
% inhibition radical production from DPPH ([2]; 100 µM): does not inhibit

C[C@H](CCC(=O)O)[C@H]1CC[C@H]2[C@@H]3[C@@H](O)C[C@@H]4C[C@H](O)CC[C@]4(C)[C@H]3CC[C@]12C [ursodesoxycholic acid]
GPT var. % [4]: 130%

C[C@H](CCC(=O)O)[C@H]1CC[C@H]2[C@@H]3[C@H](O)C[C@@H]4C[C@H](O)CC[C@]4(C)[C@H]3CC[C@]12C [chenodeoxycholic acid]
GPT var. % [4]: 150%

N[C@@H](CS)C(=O)O [Cysteine]
% inhibition radical production from DPPH ([2]; 100 µM): 100%

CC(=O)N[C@@H](CSC(=O)CCCO[N+](=O)[O-])C(=O)OCC(=O)[C@@]1(O)CC[C@H]2[C@@H]3CCC4=CC(=O)CC[C@]4(C)[C@H]3[C@@H](O)C[C@@]21C [Example 4, (11β)-11,17-Dihydroxy-21[N-acetyl-S-(4-nitroxybutyroyl)cysteinyloxy]-pregn-4-ene-3,20-dione]
Blood pressure variation % ([1]; 10 mg/kg): 98%

CC(=O)N[C@@H](CSC(=O)CCCO[N+](=O)[O-])C(=O)OCC(=O)[C@@]1(O)[C@H](C)C[C@H]2[C@@H]3CCC4=CC(=O)C=C[C@]4(C)[C@@]3(F)[C@@H](O)C[C@@]21C [Example 5, (11β,16α)-9-Fluoro-11,17-dihydroxy-21[N-acetyl-S-(4-nitroxybutyroyl)cysteinyloxy]-16-methylpregn-1,4-diene-3,20-dione]
Blood pressure variation % ([1]; 5 mg/kg): 103%
Blood pressure variation % ([1]; 42.5 mg/kg): 125%

COc1cc(/C=C/C(=O)OCCCCO[N+](=O)[O-])ccc1OC(=O)CC[C@@H](C)[C@H]1CCC2C3C(CC[C@@]21C)[C@@]1(C)CC[C@@H](O)C[C@H]1C[C@H]3O (stereo partly drawn) [Example 2, 3-[4-[(3α,5β,7α)-3,7-dihydroxycolan-24-oiloxy]-3-methoxyphenyl]-2-propenoic acid 4-nitroxybutyl ester]
GPT var. % [4]: 105%

COc1cc(/C=C/C(=O)OCCCCO[N+](=O)[O-])ccc1OC(=O)CC[C@@H](C)[C@H]1CCC2C3C(CC[C@@]21C)[C@@]1(C)CC[C@@H](O)C[C@H]1C[C@@H]3O (stereo partly drawn) [Example 1, 3-[4-[(3α,5β,7β)-3,7-dihydroxycolan-24-oiloxy]-3-methoxyphenyl]-2-propenoic acid 4-nitroxybutyl ester]
GPT var. % [4]: 103%
GPT variation % ([4]; 175 mg/kg): 123%

C[C@]12CCC(=O)C=C1CC[C@@H]1[C@@H]2[C@@H](O)C[C@@]2(C)[C@H]1CC[C@]2(O)C(=O)CO [hydrocortisone]
Blood pressure variation % ([1]; 10 mg/kg): 115%

C[C@@H]1C[C@H]2[C@@H]3CCC4=CC(=O)C=C[C@]4(C)[C@@]3(F)[C@@H](O)C[C@]2(C)[C@@]1(O)C(=O)CO [dexamethasone]
Blood pressure variation % ([1]; 5 mg/kg): 125%
